Results as given in US10758607B2, “Respiratory syncytial virus having cleavage-resistant G protein and related materials and methods” (The Research Institute at Nationwide Children's Hospital, priority 2015, dated 2020).

Experiments:
[1] = test system: G protein cleavage in RSV virions; test: Virion G protein of rgRSV-L208A grown in Vero cells (immunoblot); format: cell-based; conditions: purified through sucrose
Description: To test the infectivity of Vero-derived virus with an uncleavable G in HAE cultures, the L208A mutation was incorporated into the whole virus. rgRSV and rgRSV-L208A were grown in HeLa or Vero cells, purified by sucrose gradient, and their virion G proteins assessed by immunoblot (FIG. 7A). For FIG. 7A, the L208A mutant G protein gene was inserted into the full-length RSV genome cDNA, in place of the wt G protein. The mutant RSV was rescued and grown in HeLa or Vero cells, purified by centrifugation through a 35% sucrose cushion, and G protein assessed as before. […] The viruses were titrated on HeLa cells and equivalent infectious units used to inoculate HeLa or HAE cultures. […] For FIG. 7B, virus was titrated on HeLa cells and equivalent infectious units were used to inoculate HAE and HeLa in parallel. Virus-infected (green) cells were counted at 24 (HeLa) or 48 (HAE) hpi.
The full-length RSV cDNA construct, RW30 (Kwilas et al., J Virol (2010) 84:7770-7781), was used as the backbone for a modification of the G protein gene at amino acid 208 from a […] to an alanine. RW30 was digested with restriction enzymes EcoICRI and SacII (Thermo Fisher Scientific Waltham, Mass.) to remove the G gene, and the remaining vector was isolated from an 0.5% agarose gel following electrophoresis and eluted from the gel fragment with the Qiaex II gel elution kit (Qiagen, Valencia, Calif.). […]

[2] = test system: RSV G protein cleavage in Vero cells; test: Cleavage of mutant G proteins transiently expressed in Vero cells (immunoblot); format: cell-based
Description: The G gene in the region of amino acid 210 was modified by deleting stretches of amino acids in this region (200-211, 204-213, 206-215, 208-217, or 209-213). […] Most of the mutants almost completely ablate cleavage. They all share amino acids 208-211. However, A206-210 and A206-215, both of which bring together amino acids that can also serve as a cathepsin L cleavage site. For FIG. 6B, the mutated G protein genes were transiently expressed in Vero cells. 24 h post-transfection cells were harvested, lysed and proteins were separated by SDS-PAGE, blotted and probed with mAb to the G protein.
To identify which amino acids are important for cleavage, individual amino acids in and around this region were changed to alanine. These mutant G proteins were transiently expressed in Vero cells and assessed by immunoblot (FIG. 6C). For FIG. 6C, the mutated G protein genes were transiently expressed in Vero cells. 24 hours post-transfection cells were harvested, lysed and proteins were separated by SDS-PAGE, blotted and probed with mAb to the G protein.
The strain A2 G protein plasmid was mutagenized using synthetic double strand gBlock DNA (Integrated DNA Technologies). Van91I (Thermo Fisher) and Xho I (New England Biolabs) were used to digest plasmid and gBlock. Doubly-digested plasmid was isolated by agarose gel electrophoresis. Digested gBlock and eluted plasmid DNAs were ligated with T4 DNA ligase (Promega, Madison, Wis.), and transformed into One Shot MachI-T1 chemically competent bacteria (Life Technologies). Plasmids were extracted using HiSpeed or Plasmid Plus Maxi kits (Qiagen).
Wild type G or frG proteins were expressed in HeLa or Vero cells following plasmid transfection with FuGene HD (Promega) or Lipofectamine LTX (Life Technologies), respectively, in medium containing 2% FBS. In frG experiments, medium was collected and concentrated using Ultracel-10 K centrifugal filters (EMD Millipore, Billerica, Mass.). For other transfection experiments, Vero cells were transfected using Lipofectamine 3000 (Life Technologies) in medium containing 10% FBS. For all transfection experiments, cells were lysed and protein quantified by BCA assay. Equivalent HeLa or Vero cell lysate protein and equivalent volumes of concentrated proteins from the medium were analyzed by immunoblotting.

## L208: RSV strain A2 G protein with alanine substitution for L208
[1]
  virion G protein cleavage: prevention of G protein cleavage
[2]
  efficiency at inhibiting cleavage (rank among alanine substitutions): most efficient
[2]; 24 hours post-transfection
  resistance to cleavage of alanine substitution G protein mutants: partially to nearly completely resistant to cleavage
